This is an account of results in US6365753B1, “Phthalimides and herbicide containing the same as active component” (Mitsubishi Chemical Corporation, priority 1998, dated 2002).

Holding throughout (assay type): in vivo
One assay relates to Setaria viridis. As to the kind of experiment: Soil treatment test pre-emergence application. The following applies: 10 g/a active ingredient, 28th day from treatment, herbicidal index. The procedure: (§1) Volcanic ash soil from a field was put in a resin-made pot having an area of 200 cm^2. After fertilization, soil previously mixed uniformly with the seeds of Digitaria ciliaris, Setaria viridis, Chenopodium album and Polygonum lapathifolium was scattered on the soil. The emulsifiable concentrate comprising the compound of the invention as an active ingredient which was obtained in Formulation Example 3 was diluted with water, and a prescribed amount of the diluted composition was sprayed uniformly to the surface of the soil by means of a small-sized power pressure spray to give 10 g of the active ingredient per are.
(§2) Thereafter, cultivation was continued in a greenhouse, and the herbicidal effect was examined on the 28th day from the treatment. The results obtained are shown in Table 5 (the compound numbers in Table 5 correspond to those in Tables 1 and 2). The herbicidal effect was evaluated based on the same criteria as in Test Example 1.

The test system of another assay is Digitaria ciliaris. Put plainly: Soil treatment test pre-emergence application. The following applies: 10 g/a active ingredient, 28th day from treatment, herbicidal index. As for the experimental part: as §1, §2
Another assay concerns Polygonum lapathifolium. As to the kind of experiment: Soil treatment test pre-emergence application. The following applies: 10 g/a active ingredient, 28th day from treatment, herbicidal index. As for the experimental part:
as §1, §2

The next assay deals with Chenopodium album. Put plainly: Soil treatment test pre-emergence application. The following applies: 10 g/a active ingredient, 28th day from treatment, herbicidal index. The procedure:
as §1, §2

The subject of a further assay is Monochoria vaginalis. Put plainly: Submerged treatment test. The following applies: 10 g/a active ingredient, treated 5th day from sowing, examined on the 2.8th day from treatment, herbicidal index. The procedure:
(§3) Alluvial soil from a paddy field was put in a resin-made pot having an area of 200 cm^2. After fertilization, an adequate amount of water was added, and the soil was puddled and leveled. Seeds of Echinochloa crus-galli, Monochoria vaginalis, Rotala indica and Scirpus juncoides were sowed within a layer 0.5 cm below the surface of the soil. Water was poured onto the soil to keep a water depth of 3.5 cm.
(§4) On the 5th day from the sowing, the emulsifiable concentrate containing the compound of the invention as an active ingredient which was prepared in Formulation Example 3 was diluted with water. A prescribed amount of the diluted composition was dropped to the water so as to give 10 g of the active ingredient per are.
(§5) Cultivation was continued in a greenhouse, and the herbicidal effect was examined on the […] from the treatment. The results obtained are shown in Table 4 (the compound numbers in Table 4 correspond to those in Tables 1 and 2). The herbicidal effect was evaluated in terms of herbicidal index based on Y(%) obtained from equation:
(§6) y=[1−(Weight of weeds above the ground in a treated pot)/(Weight of weeds above the ground in a non-treated pot)]×100 (%)

In another assay the test system is Rotala indica. As to the kind of experiment: Submerged treatment test. The following applies: 10 g/a active ingredient, treated 5th day from sowing, examined on the 2.8th day from treatment, herbicidal index. As for the experimental part: as §3, §4, §5, §6
The next assay has as its system Scirpus juncoides. As to the kind of experiment: Submerged treatment test. The following applies: 10 g/a active ingredient, treated 5th day from sowing, examined on the 2.8th day from treatment, herbicidal index. The procedure:
as §3, §4, §5, §6

The subject of assay [1] is Echinochloa crus-galli. As to the kind of experiment: Submerged treatment test. The following applies: 10 g/a active ingredient, treated 5th day from sowing, examined on the 2.8th day from treatment, herbicidal index. As for the experimental part:
as §3, §4, §5, §6

The subject of another assay is Brassica juncea. As to the kind of experiment: Foliar treatment test (1) post-emergence application. The following applies: foliar treatment post-emergence at 1.0- to 2.0-leaf stage, 10 g/a active ingredient, 21st day from treatment; herbicidal index. As for the experimental part:
(§7) Volcanic ash soil from a field was put in a resin-made pot having an area of 200 cm^2. After fertilization, the seeds of Brassica juncea, Ipomoea purpurea, Echinochloa crus-galli and Alopeculus aequalis were cast on the soil and uniformly covered with the soil.
(§8) Cultivation was continued in a greenhouse, and when the weeds reached the 1.0- to 2.0-leaf stage, a prescribed amount of the emulsifiable concentrate comprising the compound of the invention as an active ingredient which was prepared in Formulation Example 3 as diluted with water was sprayed uniformly to the weeds by means of a small-sized power pressure spray to give 10 g of the active ingredient per are.
(§9) Thereafter, cultivation was further continued in the greenhouse, and the herbicidal effect was examined on the 21st day from the treatment. The results obtained are shown in Table 6 (the compound numbers in Table 6 correspond to those in Tables 1 and 2). The herbicidal effect was evaluated based on the same criteria as in Test Example 1.

The test system of another assay is Alopeculus aequalis. The description is as above. The following applies: foliar treatment post-emergence at 1.0- to 2.0-leaf stage, 10 g/a active ingredient, 21st day from treatment; herbicidal index. The procedure: as §7, §8, §9
For another assay, the system named is Ipomoea purpurea. The description is as above. The following applies: foliar treatment post-emergence at 1.0- to 2.0-leaf stage, 10 g/a active ingredient, 21st day from treatment; herbicidal index. The procedure: as §7, §8, §9
Assay [2] concerns Echinochloa crus-galli. The description is as above. The following applies: foliar treatment post-emergence at 1.0- to 2.0-leaf stage, 10 g/a active ingredient, 21st day from treatment; herbicidal index. As for the experimental part: as §7, §8, §9
Further: ranges in brackets are in %.

`CC(C)OC(=O)C(Cl)Cc1cc(N2C(=O)c3ccccc3C2=O)c(F)cc1Cl` (stereo not drawn) [Compound 7, Isopropyl 2-Chloro-3-(2-chloro-4-fluoro-5-phthalimidophenyl)propionate]: in the assay with Setaria viridis, the “Herbicidal Effect Setaria viridis” value was 1 (6-30). Further, the “Herbicidal Effect Digitaria ciliaris” value in the assay on Digitaria ciliaris is 1 (6-30). Further, in the assay on Polygonum lapathifolium, the “Herbicidal Effect Polygonum lapathifolium” value is given as 5 (91-100). The “Herbicidal Effect Chenopodium album” value in the assay with Chenopodium album was 5 (91-100). Also, the “Herbicidal Effect Monochoria vaginalis” value in the assay with Monochoria vaginalis is 5 (91-100). Further, in the assay on Rotala indica, the “Herbicidal Effect Rotala indica” value is 5 (91-100). Further, the “Herbicidal Effect Scirpus juncoides” value with Scirpus juncoides was 5 (91-100). The “Herbicidal Effect Echinochloa crus-galli” value with Echinochloa crus-galli [1] is given as 5 (91-100); in the assay on Echinochloa crus-galli [2] it was 3 (51-70). Further, in the assay on Brassica juncea, the “Herbicidal Effect Brassica juncea” value is recorded as 5 (91-100). In addition, the “Herbicidal Effect Alopeculus sequalis” value in the assay with Alopeculus aequalis is 2 (31-50). Besides, the “Herbicidal Effect Ipompoea-purpurea” value in the assay on Ipomoea purpurea is 5 (91-100).
Regarding `CCOC(=O)C(Cl)Cc1cc(N2C(=O)c3ccc(F)cc3C2=O)c(F)cc1Cl` (stereo not drawn) [Compound 15, Ethyl 2-Chloro-3-[2-chloro-4-fluoro-5-(4-fluorophthalimido)phenyl]propionate], the “Herbicidal Effect Setaria viridis” value with Setaria viridis is on record as 2 (31-50). In the assay on Digitaria ciliaris, the “Herbicidal Effect Digitaria ciliaris” value is 2 (31-50). Further, the “Herbicidal Effect Polygonum lapathifolium” value in the assay on Polygonum lapathifolium was 5 (91-100). The “Herbicidal Effect Chenopodium album” value in the assay with Chenopodium album was 5 (91-100). Also, the “Herbicidal Effect Monochoria vaginalis” value in the assay on Monochoria vaginalis is reported as 5 (91-100). In addition, in the assay with Rotala indica, the “Herbicidal Effect Rotala indica” value was 5 (91-100). In addition, the “Herbicidal Effect Scirpus juncoides” value in the assay with Scirpus juncoides was 3 (51-70). For the same compound, the “Herbicidal Effect Echinochloa crus-galli” value in the assay with Echinochloa crus-galli [1] and in the assay on Echinochloa crus-galli [2] was 4 (71-90) in each case. Besides, the “Herbicidal Effect Brassica juncea” value with Brassica juncea is 5 (91-100). Also, in the assay with Alopeculus aequalis, the “Herbicidal Effect Alopeculus sequalis” value was 4 (71-90). Besides, in the assay on Ipomoea purpurea, the “Herbicidal Effect Ipompoea-purpurea” value is 5 (91-100).
